Measurements: ChEMBL document CHEMBL1156925, “Synthesis, structure-activity relationship and crystallographic studies of 3-substituted indolin-2-one RET inhibitors” (Bioorg Med Chem, 2010)
pIC50: −log10 of the molar value.

Experiments:
[1] = biological target: ALK tyrosine kinase receptor (Homo sapiens, UniProt Q9UM73); experiment: Inhibition of ALK by ELISA-based kinase assay
[2] = biological target: Tyrosine-protein kinase ABL1 (Homo sapiens, UniProt P00519)
[3] = biological target: T1, Receptor-type tyrosine-protein kinase FLT3 (Homo sapiens, UniProt P36888); experiment: Inhibition of FLT3 by ELISA-based kinase assay
T1 sequence (P36888 whole entry): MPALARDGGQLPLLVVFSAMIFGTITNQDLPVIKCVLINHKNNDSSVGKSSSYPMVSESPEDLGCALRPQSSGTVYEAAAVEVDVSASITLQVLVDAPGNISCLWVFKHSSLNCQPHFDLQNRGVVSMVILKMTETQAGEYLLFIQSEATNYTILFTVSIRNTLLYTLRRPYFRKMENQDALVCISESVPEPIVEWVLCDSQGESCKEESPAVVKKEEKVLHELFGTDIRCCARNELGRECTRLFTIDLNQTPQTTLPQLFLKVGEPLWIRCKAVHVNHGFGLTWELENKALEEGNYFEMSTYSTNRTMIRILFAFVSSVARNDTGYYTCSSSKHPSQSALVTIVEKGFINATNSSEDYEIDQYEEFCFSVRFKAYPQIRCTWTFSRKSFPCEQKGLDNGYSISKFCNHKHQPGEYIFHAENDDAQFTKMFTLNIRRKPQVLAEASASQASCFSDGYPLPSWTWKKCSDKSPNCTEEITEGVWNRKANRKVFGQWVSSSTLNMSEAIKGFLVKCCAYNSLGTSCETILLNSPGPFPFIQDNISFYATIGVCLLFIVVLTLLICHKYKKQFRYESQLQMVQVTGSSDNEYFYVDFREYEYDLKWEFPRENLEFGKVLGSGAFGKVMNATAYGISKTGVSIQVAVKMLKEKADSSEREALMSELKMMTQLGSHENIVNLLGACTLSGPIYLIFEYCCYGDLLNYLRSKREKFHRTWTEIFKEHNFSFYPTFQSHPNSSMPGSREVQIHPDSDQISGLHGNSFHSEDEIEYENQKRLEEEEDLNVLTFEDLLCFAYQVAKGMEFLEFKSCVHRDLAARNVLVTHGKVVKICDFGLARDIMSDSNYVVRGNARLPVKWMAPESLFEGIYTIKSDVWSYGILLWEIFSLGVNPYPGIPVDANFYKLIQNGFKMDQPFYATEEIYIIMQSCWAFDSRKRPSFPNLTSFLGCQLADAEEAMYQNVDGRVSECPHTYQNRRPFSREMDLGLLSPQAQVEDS

[4] = cells; settings: Mus musculus, BaPTC2
[5] = cells; settings: Mus musculus, BaF3

Chain of ALK tyrosine kinase receptor (Q9UM73 whole entry): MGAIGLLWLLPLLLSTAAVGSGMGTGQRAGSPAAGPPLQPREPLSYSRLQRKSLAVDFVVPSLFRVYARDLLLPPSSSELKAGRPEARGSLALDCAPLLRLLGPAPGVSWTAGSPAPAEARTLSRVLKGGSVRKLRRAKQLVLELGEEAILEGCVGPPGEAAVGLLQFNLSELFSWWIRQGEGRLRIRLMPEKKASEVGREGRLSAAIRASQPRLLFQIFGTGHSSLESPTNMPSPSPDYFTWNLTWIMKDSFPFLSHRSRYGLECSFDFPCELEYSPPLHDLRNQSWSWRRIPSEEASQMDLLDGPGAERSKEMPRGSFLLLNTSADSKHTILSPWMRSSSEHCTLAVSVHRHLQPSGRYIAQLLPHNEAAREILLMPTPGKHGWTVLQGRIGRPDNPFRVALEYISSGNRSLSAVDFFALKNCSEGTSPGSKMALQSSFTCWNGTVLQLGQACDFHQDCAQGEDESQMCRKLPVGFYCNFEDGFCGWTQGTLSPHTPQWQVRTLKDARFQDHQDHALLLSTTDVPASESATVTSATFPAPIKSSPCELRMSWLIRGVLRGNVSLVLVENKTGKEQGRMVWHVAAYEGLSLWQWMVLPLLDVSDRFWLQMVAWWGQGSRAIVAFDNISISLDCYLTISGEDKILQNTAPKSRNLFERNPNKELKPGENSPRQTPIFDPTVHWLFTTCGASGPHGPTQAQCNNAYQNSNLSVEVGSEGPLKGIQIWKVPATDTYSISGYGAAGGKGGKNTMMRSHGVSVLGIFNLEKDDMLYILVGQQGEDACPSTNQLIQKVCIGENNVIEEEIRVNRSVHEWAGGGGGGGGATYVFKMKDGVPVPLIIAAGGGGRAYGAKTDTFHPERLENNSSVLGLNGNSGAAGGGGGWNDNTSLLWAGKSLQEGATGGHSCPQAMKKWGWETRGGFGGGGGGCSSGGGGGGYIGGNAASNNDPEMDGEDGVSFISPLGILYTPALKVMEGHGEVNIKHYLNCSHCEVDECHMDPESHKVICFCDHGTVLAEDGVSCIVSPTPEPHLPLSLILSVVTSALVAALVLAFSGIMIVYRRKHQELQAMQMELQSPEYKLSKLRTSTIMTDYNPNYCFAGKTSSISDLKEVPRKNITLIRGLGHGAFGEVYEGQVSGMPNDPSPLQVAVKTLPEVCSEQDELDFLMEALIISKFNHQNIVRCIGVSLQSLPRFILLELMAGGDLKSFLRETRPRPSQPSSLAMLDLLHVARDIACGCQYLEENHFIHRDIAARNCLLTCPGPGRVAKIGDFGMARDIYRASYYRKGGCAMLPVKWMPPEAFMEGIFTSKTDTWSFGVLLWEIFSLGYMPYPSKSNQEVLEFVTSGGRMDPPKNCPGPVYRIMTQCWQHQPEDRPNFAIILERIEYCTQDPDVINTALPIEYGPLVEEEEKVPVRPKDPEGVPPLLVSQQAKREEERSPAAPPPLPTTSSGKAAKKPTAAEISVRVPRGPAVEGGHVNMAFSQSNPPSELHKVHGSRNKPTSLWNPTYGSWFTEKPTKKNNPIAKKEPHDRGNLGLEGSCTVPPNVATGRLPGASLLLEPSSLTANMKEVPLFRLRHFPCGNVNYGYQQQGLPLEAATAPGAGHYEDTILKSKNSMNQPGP
Chain of Tyrosine-protein kinase ABL1 (P00519 whole entry): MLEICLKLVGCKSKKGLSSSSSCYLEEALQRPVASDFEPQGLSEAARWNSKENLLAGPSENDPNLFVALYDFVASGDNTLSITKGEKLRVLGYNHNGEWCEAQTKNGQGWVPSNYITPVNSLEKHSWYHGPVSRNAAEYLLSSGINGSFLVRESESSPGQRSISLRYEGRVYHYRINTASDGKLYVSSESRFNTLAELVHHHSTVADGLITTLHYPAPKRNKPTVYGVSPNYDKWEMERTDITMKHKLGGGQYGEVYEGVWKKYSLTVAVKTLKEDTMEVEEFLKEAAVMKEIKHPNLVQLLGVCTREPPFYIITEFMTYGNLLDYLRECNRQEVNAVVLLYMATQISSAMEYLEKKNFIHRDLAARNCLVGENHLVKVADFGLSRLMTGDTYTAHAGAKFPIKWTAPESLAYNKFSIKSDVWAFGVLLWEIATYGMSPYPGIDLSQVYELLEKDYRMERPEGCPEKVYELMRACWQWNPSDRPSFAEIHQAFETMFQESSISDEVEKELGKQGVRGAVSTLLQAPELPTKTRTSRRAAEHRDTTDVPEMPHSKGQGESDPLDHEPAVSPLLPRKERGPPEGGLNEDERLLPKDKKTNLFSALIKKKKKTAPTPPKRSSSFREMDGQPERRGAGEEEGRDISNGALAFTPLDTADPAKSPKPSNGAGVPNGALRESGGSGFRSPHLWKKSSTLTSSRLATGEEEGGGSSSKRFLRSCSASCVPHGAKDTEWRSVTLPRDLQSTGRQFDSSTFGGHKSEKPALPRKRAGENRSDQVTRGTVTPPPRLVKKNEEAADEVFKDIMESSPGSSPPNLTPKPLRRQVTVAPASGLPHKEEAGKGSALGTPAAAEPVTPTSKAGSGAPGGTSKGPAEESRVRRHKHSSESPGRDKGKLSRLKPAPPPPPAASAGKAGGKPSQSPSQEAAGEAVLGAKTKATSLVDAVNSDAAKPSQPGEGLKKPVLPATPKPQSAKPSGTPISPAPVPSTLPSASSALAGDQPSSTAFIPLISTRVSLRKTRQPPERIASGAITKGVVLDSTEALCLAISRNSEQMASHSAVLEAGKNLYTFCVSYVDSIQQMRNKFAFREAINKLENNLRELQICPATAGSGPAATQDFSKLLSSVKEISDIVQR

Structure (SMILES)	pIC50 [1]	pIC50 [2]	pIC50 [3]	pIC50 [4]	pIC50 [5]
CCOC(=O)c1c(C)[nH]c(/C=C2\C(=O)Nc3ccccc32)c1C	5.27	4.72	5.37	7.60	5.59
CN(C)S(=O)(=O)c1ccc2c(c1)/C(=C/c1cc3c([nH]1)CCCC3)C(=O)N2	4.74	< 4.30	5.06	6.80	6.74
O=C1Nc2ccccc2/C1=C\c1ccc(O)cc1	< 4.30	< 4.30	5.74	4.80	< 4.30
CCN(CC)CCNC(=O)c1c(C)[nH]c(/C=C2\C(=O)Nc3ccc(F)cc32)c1C [SUNITINIB]	–	–	–	6.66	5.92
Cc1cccc2c1/C(=C/c1ccc(N(C)C)c3ccccc13)C(=O)N2	< 4.30	< 4.30	6.40	5.00	5.00
